Test results taken from ChEMBL document CHEMBL5360614, “Quinoline Thiourea-Based Zinc Ionophores with Antibacterial Activity” (J Med Chem, 2023).
≈ marks a conversion by molar mass, not a printed value. Calls of active or inactive are those of the source. No cut-off for these calls is given here.

Tests used:
MCF-10A = assay: Cytotoxicity against human MCF-10A cells assessed as reduction in cell viability at 1 to 100 uM incubated for 44 hrs by MTT assay; type: toxicity, cell-based; details: dose 1-100 µM
Staphylococcus aureus [1] = assay: In vivo antibacterial activity against Staphylococcus aureus MTCC-96 infected in Balb/c mouse assessed as hepatocyte distribution at 156.5 microM/Kg, iv for 7 days by hematoxylin and eosin staining based microscopic analysis; type: functional, organism-based; details: time 7.0 day
Staphylococcus aureus [2] = assay: Induction of intracellular ROS generation in Staphylococcus aureus MTCC-96 at 1 uM incubated for 30 mins in presence of Zn2+ ions by DCF-DA staining based fluorescence microscopic analysis; type: functional, organism-based
Lipid bilayer [3] = assay: (§1) Induction of ionophore activity across EYPC:CHOL (8:2) large unilamellar vesicles assessed as transmembrane anion transport by measuring decrease in fluorescence intensity for HPTS dye preincubated for 3 mins followed by ZnBr2 addition and mesured after 7.5 mins by HPTS dye based fluorescence spectrophotometric analysis; details: filed as opener; time 10.5 min
Staphylococcus aureus [4] = assay: In vivo antibacterial activity against Staphylococcus aureus MTCC-96 infected in Balb/c mouse assessed as normal architecture of hepatic artery in liver tissue at 31.6 microM/Kg, iv for 7 days in presence of ZnCl2 by hematoxylin and eosin staining based microscopic analysis; type: functional, organism-based; details: time 7.0 day
MCF7 = assay: Cytotoxicity against human MCF7 cells assessed as reduction in cell viability at 1 to 100 uM incubated for 44 hrs by MTT assay; type: toxicity, cell-based; details: mcf7, 44 h, dose 1-100 µM
Lipid bilayer [5] = assay: Induction of ionophore activity across EYPC:CHOL (8:2) large unilamellar vesicles assessed as transmembrane Zn2+ ion transport by measuring decrease in fluorescence intensity for HPTS dye at 10 uM preincubated for 3 mins followed by ZnCl2 addition and mesured after 7.5 mins by HPTS dye based fluorescence spectrophotometric analysis; details: filed as opener, time 10.5 min
[6] = Binding affinity to Zn2+ ion assessed as binding constant by Benesi-Hildebrand equation analysis
Staphylococcus aureus [7] = assay: Disruption of membrane integrity in Staphylococcus aureus MTCC-96 assessed as change in cocci shape in presence of Zn2+ ion by FE-SEM analysis; type: functional, organism-based
Staphylococcus aureus [8] = assay: In vivo antibacterial activity against Staphylococcus aureus MTCC-96 infected in Balb/c mouse assessed as normal architecture of central vein in liver tissue at 31.6 microM/Kg, iv for 7 days in presence of ZnCl2 by hematoxylin and eosin staining based microscopic analysis; type: functional, organism-based; details: time 7.0 day
Staphylococcus aureus [9] = assay: Antibacterial activity against Staphylococcus aureus MTCC-96 assessed as reduction in bacterial growth incubated for 14 to 16 hrs by microbroth dilution method; type: functional; details: time 14-16 hrs
Lipid bilayer [10] = assay: as §1, with “cation” for “anion”, “RbCl” for “ZnBr2”; details: time 10.5 min
Lipid bilayer [11] = assay: as §1, with “cation” for “anion”, “CaCl2” for “ZnBr2”; details: time 10.5 min
Staphylococcus aureus [12] = assay: Antibacterial activity against Staphylococcus aureus MTCC-96 assessed as reduction in bacterial growth incubated for 14 to 16 hrs in presence of 100 to 400 uM MgCl2 by microbroth dilution method; type: functional, organism-based; details: time 14-16 hrs
Staphylococcus aureus [13] = assay: In vivo antibacterial activity against Staphylococcus aureus MTCC-96 infected in Balb/c mouse assessed as uniform distribution of hepatocytes in liver tissue at 156.5 microM/Kg, iv for 7 days by hematoxylin and eosin staining based microscopic analysis; type: functional, organism-based; details: time 7.0 day
Staphylococcus aureus [14] = assay: Antibacterial activity against gentamicin-and methicillin-resistant Staphylococcus aureus ATCC 33592 assessed as reduction in bacterial growth incubated for 14 to 16 hrs by microbroth dilution method; type: functional; details: time 14-16 hrs
Staphylococcus aureus [15] = assay: In vivo antibacterial activity against Staphylococcus aureus MTCC-96 infected in Balb/c mouse assessed as uniform distribution of sinusoids in liver tissue at 156.5 microM/Kg, iv for 7 days by hematoxylin and eosin staining based microscopic analysis; type: functional, organism-based; details: time 7.0 day
Staphylococcus aureus [16] = assay: In vivo antibacterial activity against Staphylococcus aureus MTCC-96 infected in Balb/c mouse assessed as normal architecture of bile duct in liver tissue at 31.6 microM/Kg, iv for 7 days in presence of ZnCl2 by hematoxylin and eosin staining based microscopic analysis; type: functional, organism-based; details: time 7.0 day
Escherichia coli = assay: Antibacterial activity against Escherichia coli MTCC 1687 assessed as reduction in bacterial growth incubated for 14 to 16 hrs by microbroth dilution method; type: functional; details: time 14-16 hrs
Staphylococcus aureus [17] = assay: Antibacterial activity against Staphylococcus aureus MTCC-96 assessed as reduction in bacterial growth incubated for 14 to 16 hrs in presence of 100 to 400 uM CuCl2 by microbroth dilution method; type: functional, organism-based; details: time 14-16 hrs
Staphylococcus aureus [18] = assay: Antibacterial activity against Staphylococcus aureus MTCC-96 assessed as reduction in bacterial growth incubated for 14 to 16 hrs in presence of 400 uM ZnCl2 by microbroth dilution method; type: functional; details: time 14-16 hrs
Staphylococcus aureus [19] = assay: Antibacterial activity against Staphylococcus aureus MTCC-96 assessed as resistance development by measuring fold increase in MIC and measured after 30 days by microbroth dilution method; type: functional; details: time 30 day
Lipid bilayer [20] = assay: as §1, with “cation” for “anion”, “MgCl2” for “ZnBr2”; details: time 10.5 min
Lipid bilayer [21] = assay: as §1, with “cation” for “anion”, “MnCl2” for “ZnBr2”; details: time 10.5 min
Staphylococcus aureus [22] = assay: Antibacterial activity against gentamicin-and methicillin-resistant Staphylococcus aureus ATCC 33592 assessed as reduction in bacterial growth incubated for 14 to 16 hrs in presence of 200 uM ZnCl2 by microbroth dilution method; type: functional; details: time 14-16 hrs
Staphylococcus aureus [23] = assay: In vivo antibacterial activity against Staphylococcus aureus MTCC-96 infected in Balb/c mouse assessed as bacterial load by measuring CFU in liver at 156.5 microM/Kg, iv for 7 days by CFU assay (Rvb= 719 CFU); type: functional; details: time 7 day
Staphylococcus aureus [24] = assay: Antibacterial activity against Staphylococcus aureus MTCC-96 assessed as reduction in bacterial growth incubated for 14 to 16 hrs in presence of 100 to 400 uM CsCl by microbroth dilution method; type: functional, organism-based; details: time 14-16 hrs
Staphylococcus aureus [25] = assay: In vivo antibacterial activity against Staphylococcus aureus MTCC-96 infected in Balb/c mouse assessed as bacterial load by measuring CFU in spleen at 156.5 microM/Kg, iv for 7 days by CFU assay; type: functional, organism-based; details: time 7.0 day
Lipid bilayer [26] = assay: as §1, with “Zn(NO3)2” for “ZnBr2”; details: filed as opener; time 10.5 min
MDA-MB-231 = assay: Cytotoxicity against human MDA-MB-231 cells assessed as reduction in cell viability at 1 to 100 uM incubated for 44 hrs by MTT assay; type: toxicity, cell-based; details: mda-mb-231, 44 h, dose 1-100 µM
Staphylococcus aureus [27] = assay: Antibacterial activity against Staphylococcus aureus MTCC-96 assessed as reduction in bacterial growth incubated for 14 to 16 hrs in presence of 100 to 400 uM Zn(NO3)2 by microbroth dilution method; type: functional, organism-based; details: time 14-16 hrs
Staphylococcus aureus [28] = assay: Antibacterial activity against Staphylococcus aureus MTCC-96 assessed as reduction in bacterial growth incubated for 14 to 16 hrs in presence of 100 to 400 uM ZnBr2 by microbroth dilution method; type: functional, organism-based; details: time 14-16 hrs
Lipid bilayer [29] = assay: as §1, with “cation” for “anion”, “LiCl” for “ZnBr2”; details: time 10.5 min

## FC(F)(F)c1cc(NC(=S)Nc2cccc3ccc(-n4cnc5ccccc54)nc23)cc(C(F)(F)F)c1
MCF-10A
  Activity: Non-Toxic
Staphylococcus aureus [1]
  Activity: Active
Staphylococcus aureus [2]
  Activity: Active
Lipid bilayer [3]
  Activity: Active
Staphylococcus aureus [4]
  Activity: Active
MCF7
  Activity: Non-Toxic
Lipid bilayer [5]
  Activity: Active
[6]
  K: 1.36 10^3/M
Staphylococcus aureus [7]
  Activity: inactive
Staphylococcus aureus [8]
  Activity: Active
Staphylococcus aureus [9]
  MIC: 3.13 µM (≈ 1.66 µg/mL)
Lipid bilayer [10]
  Activity: inactive
Lipid bilayer [11]
  Activity: inactive
Staphylococcus aureus [12]
  Activity: inactive
Staphylococcus aureus [13]
  Activity: Active
Staphylococcus aureus [14]
  MIC: 3.13 µM (≈ 1.66 µg/mL)
Staphylococcus aureus [15]
  Activity: Active
Staphylococcus aureus [16]
  Activity: Active
Escherichia coli
  MIC: > 50 µM
Staphylococcus aureus [17]
  Activity: inactive
Staphylococcus aureus [18]
  MIC: 0.47 µM
Staphylococcus aureus [19]
  fold change (FC): 14
Lipid bilayer [20]
  Activity: inactive
Lipid bilayer [21]
  Activity: inactive
Staphylococcus aureus [22]
  MIC: 2 µM
Staphylococcus aureus [23]
  Activity: 46 CFU
Staphylococcus aureus [24]
  Activity: inactive
Staphylococcus aureus [25]
  Activity: Active
Lipid bilayer [26]
  Activity: Active
MDA-MB-231
  Activity: Non-Toxic
Staphylococcus aureus [27]
  Activity: Active
Staphylococcus aureus [28]
  Activity: Active
Lipid bilayer [29]
  Activity: inactive
